# Laboratory results published in patent publication US9790233B2, “Compositions and methods of modulating 15-PGDH activity” (CASE WESTERN RESERVE UNIVERSITY, priority 2012, dated 2017).
# Like-named read-outs stand apart in the source and are kept apart here.
# Tests used:
# Type in all cases: cell-based
# [1] = tested on: 15-PGDH luciferase fusion construct in Vaco503 reporter cell line; experiment: 15-PGDH-luciferase fusion gene reporter induction, V503 cells
# [2] = tested on: 15-PGDH luciferase fusion construct in LS174T reporter cell line; experiment: 15-PGDH-luciferase fusion gene reporter induction, LS174T cells; conditions: Homo sapiens
# [3] = tested on: 15-PGDH luciferase fusion construct in V9m reporter cell line; experiment: 15-PGDH-luciferase fusion gene reporter induction, V9m cells
# [4] = read-out: V503-3H9-7 reporter activity, % ([…]), V503 reporter cells, […] compound, % induction of luciferase activity over basal level, read-out: V503-3H9-7 reporter activity, % (2.5 μM)
# [5] = read-out: V503-3H9-7 reporter activity, % ([…]), V503 reporter cells, […] compound, % induction of luciferase activity over basal level, read-out: V503-3H9-7 reporter activity, % (7.5 μM)
# [6] = read-out: Ls174T-SC1 reporter activity, % ([…]), LS174T reporter cells, […] compound, % induction of luciferase activity over basal level, read-out: Ls174T-SC1 reporter activity, % (2.5 μM)
# [7] = read-out: Ls174T-SC1 reporter activity, % ([…]), LS174T reporter cells, […] compound, % induction of luciferase activity over basal level, read-out: Ls174T-SC1 reporter activity, % (7.5 μM)
# [8] = read-out: V9M-SC3 Reporter activity ([…]) (%), V9m reporter cells, […] compound, % induction of luciferase activity over basal level, read-out: V9M-SC3 Reporter activity (2.5 μM) (%)
# [9] = read-out: V9M-SC3 Reporter activity ([…]), %, V9m reporter cells, […] compound, % induction of luciferase activity over basal level, read-out: V9M-SC3 Reporter activity (7.5 μM), %
# [10] = read-out: V503 reporter activity ([…]), […], % induction over basal level, Table 17, read-out: V503 reporter activity (2.5 μM)
# [11] = read-out: V503 reporter activity ([…]), […], % induction over basal level, Table 17, read-out: V503 reporter activity (7.5 μM)
# [12] = read-out: LS174T reporter activity ([…]), […], % induction over basal level, Table 17, read-out: LS174T reporter activity (2.5 μM)
# [13] = read-out: lS174T reporter activity ([…]), […], % induction over basal level, Table 17, read-out: lS174T reporter activity (7.5 μM)
# [14] = read-out: V9M reporter activity ([…]), […], % induction of luciferase activity over basal level, Table 17, read-out: V9M reporter activity (2.5 μM)
# [15] = read-out: V9M reporter activity ([…]), […], % induction over basal level, Table 17, read-out: V9M reporter activity (7.5 μM)
# [16] = read-out: V503-3H9-7 reporter activity, % ([…]), […], Table 18, read-out: V503-3H9-7 reporter activity, % (2.5 μM)
# [17] = read-out: V503-3H9-7 reporter activity, % ([…]), […], Table 18, read-out: V503-3H9-7 reporter activity, % (7.5 μM)
# [18] = read-out: Ls174T-SC1 reporter activity, % ([…]), […], Table 18, read-out: Ls174T-SC1 reporter activity, % (2.5 μM)
# [19] = read-out: Ls174T-SC1 reporter activity, % ([…]), […], Table 18, read-out: Ls174T-SC1 reporter activity, % (7.5 μM)
# [20] = read-out: V9M-SC3 Reporter activity ([…]) (%), […], Table 18, read-out: V9M-SC3 Reporter activity (2.5 μM) (%)
# [21] = read-out: V503 reporter activity ([…]), […], % increased luciferase activity over basal level, read-out: V503 reporter activity (2.5 uM)
# [22] = read-out: V503 reporter activity ([…]), […], % increased luciferase activity over basal level, read-out: V503 reporter activity (7.5 uM)
# [23] = read-out: LS174T reporter activity ([…]), […], % increased luciferase activity over basal level, read-out: LS174T reporter activity (2.5 uM)
# [24] = read-out: LS174T reporter activity ([…]), […], % increased luciferase activity over basal level, read-out: LS174T reporter activity (7.5 uM)
# [25] = read-out: V9M reporter activity ([…]), […], % increased luciferase activity over basal level, 100 = doubling, read-out: V9M reporter activity (2.5 uM)
# [26] = read-out: V9M reporter activity ([…]), […], % increased luciferase activity over basal level, 100 = doubling, read-out: V9M reporter activity (7.5 uM)
SMILES,"activation at […] [1, 4]","activation at […] [1, 5]","activation at […] [2, 6]","activation at […] [2, 7]","activation at […] [3, 8]","activation at […] [3, 9]","activation at […] [1, 10]","activation at […] [1, 11]","activation at […] [2, 12]","activation at […] [2, 13]","activation at […] [3, 14]","activation at […] [3, 15]",further results
COc1ccc(OC)c(N(CC(=O)Nc2cccnc2)S(=O)(=O)c2ccccc2F)c1 [SW202947],143%,97.8%,52%,21.2%,21.9%,2.57%,,,,,,,
CCCOC(=O)CN(c1cc(OC)ccc1OC)S(=O)(=O)c1ccccc1 [SW202986],60.2%,175%,0.21%,33.8%,-22.9%,-9.6%,,,,,,,
COc1ccc(OC)c(N(CC(=O)Nc2ccc(I)cc2)S(=O)(=O)c2ccc(C)cc2)c1 [compound 771146],,,,,,,-49.7%,-86.6%,-31.6%,-68.8%,-38.1%,-78.3%,
COc1ccc(N(CC(=O)Nc2cccnc2)S(=O)(=O)c2ccccc2)cc1 [418783−65−0],,,,,,,,,,,,,"activation at […] [1, 16]: 11.6%; activation at […] [1, 17]: 6.68%; activation at […] [2, 18]: -12.6%; activation at […] [2, 19]: 5.81%; activation at […] [3, 20]: 0.51%"
"CCCCCC[S+]([O-])c1sc2nc(-c3cccs3)cc(-c3ccccc3)c2c1N (stereo not drawn) [SW208081, 2-(hexylsulfinyl)-4-phenyl-6-(thiophen-2-yl)thieno[2,3-b]pyridin-3-amine]",,,,,,,,,,,,,"activation at […] [1, 21]: 90.5%; activation at […] [1, 22]: 105%; activation at […] [2, 23]: 64.5%; activation at […] [2, 24]: 95.1%; activation at […] [3, 25]: 37.8%; activation at […] [3, 26]: 63.6%"
COc1ccc(OC)c(N(CC(=O)Nc2cccc(Cl)c2)S(=O)(=O)c2ccccc2)c1 [SW202985],79.6%,150%,-4.89%,26.3%,-27.3%,-21.9%,,,,,,,
"CCCC[S+]([O-])c1sc2nc(-c3ccccc3)nc(-c3ccccc3)c2c1N (stereo not drawn) [SW208065, 6-(butylsulfinyl)-2,4-diphenylthieno[2,3-d]pyrimidin-5-amine]",,,,,,,,,,,,,"activation at […] [1, 21]: 73.5%; activation at […] [1, 22]: 87.7%; activation at […] [2, 23]: 73.5%; activation at […] [2, 24]: 87.7%; activation at […] [3, 25]: 120%; activation at […] [3, 26]: 119%"
COc1ccc(OC)c(NC(=O)CN(c2ccccc2)S(=O)(=O)c2cc(Br)ccc2OC)c1 [compound 1002654],,,,,,,0.78%,19.2%,5.51%,-1.24%,-2.58%,-3.96%,
COc1ccc(S(=O)(=O)N(CC(=O)Nc2ccc(Cl)cc2Cl)c2ccccc2)cc1 [compound 543716],,,,,,,-8.04%,-8.6%,3.26%,-2.08%,4.2%,-0.14%,
CCOC(=O)c1sc2nc(-c3ccccc3)cc(-c3ccccc3)c2c1N [compound 405320],,,,,,,,,,,,,"activation at […] [1, 21]: -7.73%; activation at […] [1, 22]: -33.7%; activation at […] [2, 23]: 9.95%; activation at […] [2, 24]: -2.57%; activation at […] [3, 25]: 8.77%; activation at […] [3, 26]: -15.4%"
COc1ccc(N(CC(=O)N/N=C/c2cccnc2)S(=O)(=O)c2ccccc2)c(OC)c1 [compound 396087],,,,,,,17.2%,30.8%,4.37%,10.2%,-8.51%,10.1%,
COc1ccc(OC)c(N(CC(=O)Nc2cccnc2)S(C)(=O)=O)c1 [527699−66−7],,,,,,,,,,,,,"activation at […] [1, 16]: 38.8%; activation at […] [1, 17]: 70.9%; activation at […] [2, 18]: 7.31%; activation at […] [2, 19]: -29.6%; activation at […] [3, 20]: -31%"
COc1ccc(OC)c(N(CC(=O)Nc2ccc(Br)cc2F)S(=O)(=O)c2ccc(C)cc2)c1 [compound 1004292],,,,,,,23.5%,21.2%,20.3%,0.14%,0.88%,-0.21%,
COc1ccc(OC)c(N(CC(=O)NC2CCCCC2)S(=O)(=O)c2ccccc2)c1 [333446-93-8],,,,,,,,,,,,,"activation at […] [1, 16]: 53.8%; activation at […] [1, 17]: 44.1%; activation at […] [2, 18]: 12.9%; activation at […] [2, 19]: 13.5%; activation at […] [3, 20]: 16.5%"
COc1ccc(OC)c(N(CC(=O)Nc2ccc(Cl)nc2)S(=O)(=O)c2ccccc2)c1 [SW202970],179%,122%,47.9%,55.9%,32.7%,17.8%,,,,,,,
COc1ccc(Cl)cc1N(CC(=O)Nc1cccnc1)S(=O)(=O)c1ccccc1 [328012−52−8],,,,,,,,,,,,,"activation at […] [1, 16]: 243%; activation at […] [1, 17]: -4.89%; activation at […] [2, 18]: 128%; activation at […] [2, 19]: 176%; activation at […] [3, 20]: -15.4%"
COc1ccc(N(CC(=O)Nc2cccnc2)S(=O)(=O)c2ccccc2)c(OC)c1 [310875−38−8],,,,,,,,,,,,,"activation at […] [1, 16]: 64.1%; activation at […] [1, 17]: 148%; activation at […] [2, 18]: 27.7%; activation at […] [2, 19]: 102%; activation at […] [3, 20]: -8.72%"
COc1ccc(OC)c(CN(CC(=O)Nc2cccnc2)S(=O)(=O)c2ccccc2)c1 [SW203688],-28.1%,-99.5%,12.6%,14.8%,12.1%,6.04%,,,,,,,
"CCCCSc1ncccc1N [SW208068, 2-(butylthio)pyridin-3-amine]",,,,,,,,,,,,,"activation at […] [1, 21]: 14.9%; activation at […] [1, 22]: 15%; activation at […] [2, 23]: 14.9%; activation at […] [2, 24]: 15%; activation at […] [3, 25]: 12.9%; activation at […] [3, 26]: 12.3%"
COc1ccc(OC)c(N(CC(=O)Nc2ccccc2F)S(=O)(=O)c2ccccc2)c1 [compound 503270],,,,,,,29.9%,42.1%,12.3%,32.8%,-4.47%,24.1%,
COc1ccc(OC)c(N(CC(=O)N(C)c2cccnc2)S(=O)(=O)c2ccccc2)c1 [SW203686],-11%,65.6%,116%,28.5%,15.1%,30.3%,,,,,,,
COc1ccc(OC)c(N(CC(=O)Nc2ccnc(F)c2)S(=O)(=O)c2ccccc2)c1 [SW208005],103%,61.2%,63.9%,53.9%,42.4%,19.8%,,,,,,,
O=C(CN(c1ccc(F)cc1)S(=O)(=O)c1ccccc1)Nc1cccnc1 [compound 414177],,,,,,,-2.8%,-5.73%,9.51%,-0.62%,10.6%,7.72%,
COc1ccc(OC)c(N(CC(=O)Nc2cc(C)cnc2Cl)S(=O)(=O)c2ccccc2)c1 [SW202972],39.4%,100%,-17.4%,16.6%,-15.4%,0.14%,,,,,,,
CCOc1ccc(N(CC(=O)Nc2cccnc2)S(=O)(=O)c2ccccc2)cc1 [428473−22−7],,,,,,,,,,,,,"activation at […] [1, 16]: 19.1%; activation at […] [1, 17]: 19.8%; activation at […] [2, 18]: -15.5%; activation at […] [2, 19]: 10.6%; activation at […] [3, 20]: -17.9%"
COc1ccc(OC)c(N(CC(=O)Nc2ccccc2Br)S(=O)(=O)c2ccc(C)cc2)c1 [compound 771132],,,,,,,24.8%,40.8%,14%,13.5%,-2.26%,12.2%,
